Read-outs that look alike come from different tables or passages of the source.
What was measured:
L. major promastigotes [1] = experiment: L. major promastigote drug susceptibility assay (alamar blue, 384-well); format: cell-based, Leishmania major
Procedure: Promastigotes were grown in vented T75 tissue culture flasks and maintained at 28°C. Promastigote cultures were initiated at 10^5 parasites per mL and subcultured every 3–4 days. L. major promastigote counts were performed in duplicate using a hemocytometer and particle counter (Beckman Coulter, Fullerton, CA). For HTS assays, L. major promastigote cultures were harvested during exponential growth phase (∼2.0–3.0×10^7 parasites/mL) and were not maintained past passage 20.
The final test compound concentration was 10 µM with a constant DMSO concentration of 1% in each assay well.
The L. major promastigote drug susceptibility assay was performed in a final volume of 25 µL using our previously described 384-well microtiter plate format,[39]. For automated HTS procedures, L. major promastigotes (5,000 parasites/22 µL) in complete growth medium were seeded into each well of the microtiter plates using a MAPC2 bulk dispenser (Titertek, Huntsville, AL). Test and control compounds (3 µL) were added to individual wells using a Velocity 11 V-prep (Menlo Park, CA) liquid handling system, equipped with a 384-well dispensing head, followed by centrifugation at 50 g for 1 min. […] Assay plates were allowed to incubate for 44 h at 28°C in the presence of 5% CO2. Five µL of alamar blue reagent were added to each assay plate well and incubated for 4 h at 28°C with 5% CO2. Data were captured on a Molecular Devices SpectraMax M5 (excitation560; emission590). Individual assay plate Z-factors were derived from the vehicle and positive controls, and data from plates were used only if Z-factors were >0.5 [50].
The assays were performed in duplicate with a final 10-point concentration range spanning 0.01–5.00 µM.

A549 = experiment: Mammalian cell line specificity assay (alamar blue); format: cell-based, human
Procedure: (§1) Mammalian cells were cultured and maintained according to ATCC specifications (ATCC, Manassas, VA). Cell line drug susceptibility assays were performed in final volumes of 25 µL using our previously described 384-well microtiter plate format,[39]. […] Test and control compounds were added to individual wells as described above. Vehicle and positive controls were 1% DMSO and 10% DMSO, respectively (final well concentrations). Assay plates were incubated for 44–46 h at 37°C in the presence of 5% CO2 and growth inhibitory effects were determined as described above. Five µL of alamar blue reagent was added to each well and incubated for 2–4 h. Data were captured as described above.

L. major promastigotes [2] = experiment: Flow cytometer-based growth inhibition and cytotoxicity assay; details: 48 h, read-out: L. major promastigote EC50 (AVE±SD) Confirmation Flow Cytometry
[3] = tested on: L. major axenic amastigote-like population; experiment: L. major axenic amastigote-like alamar blue assay (pH 4.9); format: cell-based, Leishmania major
IMR-90 = experiment: Mammalian cell line specificity assay (alamar blue); format: cell-based, human; details: 44–46 h, alamar blue, read-out: IMR90 EC50 (AVE±SD)
Procedure: as §1

PC-3 = experiment: as above; format: cell-based, human; details: 44–46 h, alamar blue, read-out: PC-3 EC50 (AVE±SD)
Procedure: as §1

MDA-MB-231 = experiment: as above; format: cell-based, human; details: 44–46 h, alamar blue, read-out: MDA EC50 (AVE±SD)
Procedure: as §1

HeLa = experiment: as above; format: cell-based, human; details: 44–46 h, alamar blue, read-out: HeLa EC50 (AVE±SD)
Procedure: as §1

[4] = Table S1; PMLSC library samples, 10-point 0.01–5.00 µM; read-out: EC50 Ave ± SD, Lm
[5] = Table S1, PMLSC library samples, read-out: EC50 Ave ± SD, A549
[6] = Leishmania major, read-out: EC50 Ave ± SD, Lm
[7] = Leishmania major, 144 h, pH 4.9, read-out: L. major axenic amastigote-like EC50 (AVE±SD) Confirmation Alamar Blue

Work on `CCC(/C=C1\Sc2ccc(OC)cc2N1CCO)=C\c1sc2ccc(OC)cc2[n+]1CCO` [CID 12004742] yielded an EC50 (L. major promastigotes [1]; [4]) of 491 ± 92 nM and an EC50 (A549; [5]) greater than 5000 nM.
Molecule `CCCCCCCCCCCCCCCC[n+]1cccc(C(=O)N(CC)CC)c1` [CID 12005597] has an EC50 (L. major promastigotes [1]; [4]) of 629 ± 107 nM and an EC50 (A549; [5]) of 4070 ± 721 nM.
With `Cc1ccc(-c2cc3cccc[n+]3cc2-c2ccc(C)cc2)cc1` [CID 13481921] the EC50 (L. major promastigotes [1]; [4]) was 229 ± 34 nM and the EC50 (A549; [5]) was greater than 5000 nM.
`Nc1nn(-c2ccccc2)c(N)c1N=Nc1ccc2c(c1)OCO2` [CID 15944965] was tested, and the EC50 (L. major promastigotes [1]; [4]) was 849 ± 99 nM and the EC50 (A549; [5]) was greater than 5000 nM.
In the case of `O=C(c1ccccc1)c1c2c(cc3sc4ccccc4[n+]13)-c1cccc3cccc-2c13` [CID 15944971], the EC50 (L. major promastigotes [1]; [4]) is reported as 505 ± 54 nM and the EC50 (A549; [5]) is reported as greater than 5000 nM.
`CCOC(=O)c1c(-c2ccc(F)cc2)csc1NC(=O)CCN1CCOCC1` [CID 15945170] showed an EC50 (L. major promastigotes [1]; [4]) of 178 ± 36 nM and an EC50 (A549; [5]) greater than 5000 nM.
Work on `Cc1ccc(-c2cc(-c3ccc(C)cc3)[n+](C)o2)cc1.[O-][Cl+3]([O-])([O-])[O-]` [CID 15945780] yielded an EC50 (L. major promastigotes [1]; [4]) of 184 ± 12 nM and an EC50 (A549; [5]) greater than 5000 nM.
For `Cn1cc(CN2CCC(CO)CC2)c(-c2ccc(Oc3ccccc3)cc2)n1` [CID 16187569], the EC50 (L. major promastigotes [1]; [4]) was 165 ± 25 nM and the EC50 (A549; [5]) was greater than 5000 nM.
In the case of `CC(C)(C)c1ccc(C(=O)C2CCCN(C3CCC3)C2)cc1` (stereo not shown) [CID 16187595], the EC50 (L. major promastigotes [1]; [6]) is reported as 14 ± 13 nM, the EC50 (A549; Homo sapiens, A549, read-out: EC50 Ave ± SD, A549) is reported as greater than 5000 nM and the EC50 (L. major promastigotes [2]; Leishmania major) is reported as 40 ± 10 nM. It also gave an EC50 [3, 7] of 2300 ± 200 nM.
`O=C(c1ccc(-c2ccccc2)c(F)c1)C1CCCN(CCO)C1` (stereo not shown) [CID 16187738] gave an EC50 (L. major promastigotes [1]; [4]) of 511 ± 44 nM and an EC50 (A549; [5]) greater than 5000 nM.
With `CC12CCC(C(=O)N(CCCN3CCN(Cc4ccccc4)CC3)C1=O)C2(C)C` (stereo not shown) [CID 16189740] the EC50 (L. major promastigotes [1]; [4]) was 571 ± 113 nM and the EC50 (A549; [5]) was greater than 5000 nM.
Work on `CC(C)(C)c1ccc(-c2ncccc2O)cc1` [CID 16192568] yielded an EC50 (L. major promastigotes [1]; [4]) of 301 ± 50 nM and an EC50 (A549; [5]) greater than 5000 nM.
`NCC12CC3CC(C1)CC(c1ccc(Cl)cc1)(C3)C2` [CID 16192591] gave an EC50 (L. major promastigotes [1]; [4]) of 357 ± 56 nM and an EC50 (A549; [5]) of 3750 ± 623 nM.
For `COc1ccc(/C=C/c2cc[n+](C(=O)Cc3ccccc3)cc2)cc1` [CID 16196001], the EC50 (L. major promastigotes [1]; [4]) was 50 ± 9 nM and the EC50 (A549; [5]) was greater than 5000 nM.
`C[n+]1c(-c2ccccc2)cc(CCCCc2cc(-c3ccccc3)[n+](C)c(-c3ccccc3)c2)cc1-c1ccccc1.[O-][Cl+3]([O-])([O-])O` [CID 16196006] gave an EC50 (L. major promastigotes [1]; [4]) of 703 ± 44 nM and an EC50 (A549; [5]) greater than 5000 nM.
`COc1ccc(-[n+]2c(C)cc(/C=C3\Sc4ccccc4N3C)cc2C)cc1` [CID 16196223] was tested, and the EC50 (L. major promastigotes [1]; [4]) was 18 ± 2 nM and the EC50 (A549; [5]) was 2320 ± 205 nM.
`Cc1cc(/C=C2\Sc3ccccc3N2C)cc(C)[n+]1CC1CCCO1` (stereo not shown) [CID 16196319] showed an EC50 (L. major promastigotes [1]; [4]) of 15 ± 1 nM and an EC50 (A549; [5]) greater than 5000 nM.
Work on `CN(C)CCOc1ccccc1Cc1ccccc1` [Phenytoloxamine, reference compound] yielded an EC50 (L. major promastigotes [1]; [6]) of 502 ± 87 nM, an EC50 (IMR-90; Homo sapiens, IMR-90) greater than 50000 nM and an EC50 (A549; Homo sapiens, A549, 44–46 h, alamar blue, read-out: A549 EC50 (AVE±SD)) greater than 50000 nM. It also gave an EC50 (A549; Homo sapiens, A549, Table S1, PMLSC library samples, read-out: EC50 Ave ± SD, A549) greater than 5000 nM, an EC50 (PC-3; Homo sapiens, PC-3) greater than 50000 nM and an EC50 (MDA-MB-231; Homo sapiens, MDA-MB-231) greater than 50000 nM. The EC50 (HeLa; Homo sapiens, HeLa) was greater than 50000 nM, the EC50 (L. major promastigotes [2]; Leishmania major) was 300 ± 30 nM and the EC50 [3, 7] was greater than 50000 nM.
For “Pentamidine Isethionate [reference compound]”, the EC50 (L. major promastigotes [1]; read-out: EC50 Ave ± SD, Lm; Table S1; PMLSC library samples, 10-point 0.01–5.00 µM) was 46 ± 12 nM, the “primary hit (≥50% inhibition of signal readout)” value (L. major promastigotes [1]; single concentration 10 µM; LOPAC, UP-CMLD DP validation set or PMLSC library) was “primary hits” and the EC50 (IMR-90) was greater than 50000 nM. The EC50 (A549; read-out: A549 EC50 (AVE±SD), 44–46 h, alamar blue) was greater than 50000 nM, the EC50 (A549; read-out: EC50 Ave ± SD, A549, Table S1, PMLSC library samples) was greater than 5000 nM and the EC50 (PC-3) was greater than 50000 nM. For the same molecule, the EC50 (MDA-MB-231) was greater than 50000 nM, the EC50 (HeLa) was greater than 50000 nM and the EC50 (L. major promastigotes [2]; 28°C, ViaCount, 0.1–50 µM) was 730 ± 390 nM. It also gave an EC50 ([3]; read-out: L. major axenic amastigote-like EC50 (AVE±SD) Confirmation Alamar Blue, pH 4.9, 144 h, 32°C) of 1260 ± 40 nM.

Reference: article PMC2765639 (PLoS Neglected Tropical Diseases, 2009)
